Assay results as given in patent US9694016B2 (Novartis AG, priority 2013, dated 2017).

Target: b-Raf (V600E) (Homo sapiens (Human), UniProt P15056, V600E)
Settings: read-out: b-Raf IC-50; AlphaScreen, 60 min pre-incubation, 3 hours reaction

b-Raf (V600E), sequence (P15056 whole entry V600E): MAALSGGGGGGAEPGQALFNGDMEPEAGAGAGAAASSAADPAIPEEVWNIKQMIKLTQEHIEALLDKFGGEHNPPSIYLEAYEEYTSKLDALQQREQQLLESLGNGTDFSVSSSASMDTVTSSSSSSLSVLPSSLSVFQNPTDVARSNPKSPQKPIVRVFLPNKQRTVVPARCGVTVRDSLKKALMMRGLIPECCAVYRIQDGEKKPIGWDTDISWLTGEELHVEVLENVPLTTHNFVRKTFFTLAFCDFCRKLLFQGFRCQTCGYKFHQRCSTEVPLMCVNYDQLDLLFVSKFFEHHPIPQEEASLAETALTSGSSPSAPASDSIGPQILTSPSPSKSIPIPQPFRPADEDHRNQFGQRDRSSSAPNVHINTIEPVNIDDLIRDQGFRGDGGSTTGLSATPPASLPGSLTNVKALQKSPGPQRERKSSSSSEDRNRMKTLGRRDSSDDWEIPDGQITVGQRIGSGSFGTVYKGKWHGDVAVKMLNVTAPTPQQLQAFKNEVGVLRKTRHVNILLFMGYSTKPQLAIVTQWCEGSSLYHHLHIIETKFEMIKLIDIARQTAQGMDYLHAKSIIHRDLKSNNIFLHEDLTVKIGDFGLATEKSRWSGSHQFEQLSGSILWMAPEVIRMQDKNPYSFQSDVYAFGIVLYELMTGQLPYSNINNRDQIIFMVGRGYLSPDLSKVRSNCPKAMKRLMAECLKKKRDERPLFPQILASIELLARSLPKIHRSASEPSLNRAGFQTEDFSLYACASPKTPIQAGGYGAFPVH

SMILES	IC50
Cc1ccc(NC(=O)c2ccnc(C(F)F)c2)cc1-c1cc(N2CCOCC2)n2nccc2n1 [Example 805, 2-(difluoromethyl)-N-(4-methyl-3-(7-morpholinopyrazolo[1,5-a]pyrimidin-5-yl)phenyl)isonicotinamide]	0.4 nM
Cc1ncc(NC(=O)c2ccnc(C(C)(C)C)c2)cc1-c1cc(N2CCOCC2)n(C)c(=O)c1 [Example 507, 2-(tert-butyl)-N-(1′,2-dimethyl-6′-morpholino-2′-oxo-1′,2′-dihydro-[3,4′-bipyridin]-5-yl)isonicotinamide]	20.6 nM
Cc1ccc(NC(=O)c2ccnc(C(C)(F)F)c2)cc1-c1cc(N2C3CCC2COC3)c(=O)n(C)n1 [Example 670, N-(3-(5-(3-oxa-8-azabicyclo[3.2.1]octan-8-yl)-1-methyl-6-oxo-1,6-dihydropyridazin-3-yl)-4-methylphenyl)-2-(1,1-difluoroethyl)isonicotinamide]	2.8 nM
CCOc1nnc(-c2cc(NC(=O)c3ccc(CNC)c(C(F)(F)F)c3)cnc2C)cc1N1CCOCC1 [Example 626, N-(5-(6-ethoxy-5-morpholinopyridazin-3-yl)-6-methylpyridin-3-yl)-4-((methylamino)methyl)-3-(trifluoromethyl)benzamide]	14 nM
Cc1ccc(NC(=O)c2ccnc(C(C)(C)C#N)c2)cc1-c1cc(N2CCOCC2)n(C)c(=O)c1 [Example 487, 2-(2-cyanopropan-2-yl)-N-(4-methyl-3-(1-methyl-6-morpholino-2-oxo-1,2-dihydropyridin-4-yl)phenyl)isonicotinamide]	2.8 nM
CCC(F)(F)c1cc(C(=O)Nc2cnc(C)c(-c3cc(N4CCOCC4)c(OC)nn3)c2)ccn1 [Example 607, 2-(1,1-difluoropropyl)-N-(5-(6-methoxy-5-morpholinopyridazin-3-yl)-6-methylpyridin-3-yl)isonicotinamide]	4.7 nM
Cc1ccc(NC(=O)c2ccnc(C(C)(C)F)c2)cc1-c1cc(N2CCOCC2)c(=O)n(C)n1 [Example 654, 2-(2-fluoropropan-2-yl)-N-(4-methyl-3-(1-methyl-5-morpholino-6-oxo-1,6-dihydropyridazin-3-yl)phenyl)isonicotinamide]	1.7 nM
CCNc1nc(-c2cc(NC(=O)c3cccc(C(C)(F)F)c3)ccc2C)cc(N2CCOCC2)n1 [Example 701, 3-(1,1-difluoroethyl)-N-(3-(2-(ethylamino)-6-morpholinopyrimidin-4-yl)-4-methylphenyl)benzamide]	1.3 nM
Cc1ncc(NC(=O)c2ccnc(S(C)(=O)=O)c2)cc1-c1cc(N2CCOCC2)c(OC2CCOCC2)nn1 [Example 632, N-(6-methyl-5-(5-morpholino-6-((tetrahydro-2H-pyran-4-yl)oxy)pyridazin-3-yl)pyridin-3-yl)-2-(methylsulfonyl)isonicotinamide]	7.5 nM

Second part, the molecule after the results:

IC50	SMILES
0.7 nM	Cc1ccc(NC(=O)c2ccnc(C3(C#N)CC3)c2)cc1-c1cc(N2CCOCC2)c(=O)n(C)n1 [Example 659, 2-(1-cyanocyclopropyl)-N-(4-methyl-3-(1-methyl-5-morpholino-6-oxo-1,6-dihydropyridazin-3-yl)phenyl)isonicotinamide]
4.4 nM	CCC(F)(F)c1cc(C(=O)Nc2cnc(C)c(-c3cncc(N4CCOCC4)n3)c2)ccn1 [Example 537, 2-(1,1-difluoropropyl)-N-(6-methyl-5-(6-morpholinopyrazin-2-yl)pyridin-3-yl)isonicotinamide]
27.2 nM	CCNc1nc(-c2cc(NC(=O)c3cnnc(C(C)(C)C#N)c3)cnc2C)cc(N2CCOCC2)n1 [Example 730, 6-(2-cyanopropan-2-yl)-N-(5-(2-(ethylamino)-6-morpholinopyrimidin-4-yl)-6-methylpyridin-3-yl)pyridazine-4-carboxamide]

Same assay, conditions: read-out: b-Raf IC-50; AlphaScreen, 60 min pre-incubation, reaction 3 hours at room temperature

SMILES	IC50
Cc1ncc(NC(=O)c2ccnc(C(C)(C)F)c2)cc1-c1cnc(OC[C@H](C)O)c(N2CCOCC2)c1 [Example 990, (S)-2-(2-fluoropropan-2-yl)-N-(6′-(2-hydroxypropoxy)-2-methyl-5-morpholino-[3,3′-bipyridin]-5-yl)isonicotinamide]	5.41 nM
Cc1ccc(NC(=O)c2ccnc(C(F)(F)F)c2)cc1-c1cc(NC2CCOC2)nc(N2CCOCC2)c1 (centres unmarked) [Example 1054, N-(4-methyl-3-(2-morpholino-6-((tetrahydrofuran-3-yl)amino)pyridin-4-yl)phenyl)-2-(trifluoromethyl)isonicotinamide]	1.18 nM
Cc1ccc(NC(=O)c2ccnc(S(C)(=O)=O)c2)cc1-c1cnc(OC(C)C)c(N2CCOCC2)c1 [Example 950, N-(3-(6-isopropoxy-5-morpholinopyridin-3-yl)-4-methylphenyl)-2-(methylsulfonyl)isonicotinamide]	0.47 nM
CCC(F)(F)c1cc(C(=O)Nc2cnc(C)c(-c3cc(N4CCOCC4)c(OCC(F)F)nn3)c2)ccn1 [Example 914, N-(5-(6-(2,2-difluoroethoxy)-5-morpholinopyridazin-3-yl)-6-methylpyridin-3-yl)-2-(1,1-difluoropropyl)isonicotinamide]	1.95 nM

Further lines, results first:

IC50	SMILES
5.62 nM	Cc1ncc(NC(=O)c2ccnc(C(C)(F)F)c2)cc1-c1cc(N2CCOCC2)nc(N2CC(C)(O)C2)c1 [Example 1105, 2-(1,1-difluoroethyl)-N-(2′-(3-hydroxy-3-methylazetidin-1-yl)-2-methyl-6′-morpholino-[3,4′-bipyridin]-5-yl)isonicotinamide]
27.8 nM	Cc1ncc(NC(=O)c2ccnc(C(C)(C)F)c2)cc1-c1cc(NCCO)nc(N2CCOC[C@H]2C)c1 [Example 1138, (R)-2-(2-fluoropropan-2-yl)-N-(2′-((2-hydroxyethyl)amino)-2-methyl-6′-(3-methylmorpholino)-[3,4′-bipyridin]-5-yl)isonicotinamide]
35.2 nM	Cc1ncc(NC(=O)c2ccnc(C(C)(C)C#N)c2)cc1-c1cc(N2CCOCC2)nc(N2CC(O)C2)c1 [Example 1083, 2-(2-cyanopropan-2-yl)-N-(2′-(3-hydroxyazetidin-1-yl)-2-methyl-6′-morpholino-[3,4′-bipyridin]-5-yl)isonicotinamide]
2.63 nM	CNC(=O)c1ncc(-c2cc(NC(=O)c3ccnc(C(C)(F)F)c3)ccc2C)cc1N1CCOCC1 [Example 987, 5-(5-(2-(1,1-difluoroethyl)isonicotinamido)-2-methylphenyl)-N-methyl-3-morpholinopicolinamide]

Same assay, conditions: read-out: b-Raf IC-50; Table 2; AlphaScreen, 3 hours reaction

SMILES	IC50
Cc1ncc(NC(=O)c2cccc(C(F)(F)F)c2)cc1-c1cnc(OC2CCOCC2)c(N2CCOCC2)c1 [Example 131, N-(2-methyl-5′-morpholino-6′-((tetrahydro-2H-pyran-4-yl)oxy)-[3,3′-bipyridin]-5-yl)-3-(trifluoromethyl)benzamide]	1.8 nM
CCN(C(=O)c1cccc(C(F)(F)F)c1)c1cnc(C)c(-c2cnc(OC3CCOCC3)c(N3CCOCC3)c2)c1 [Example 329, N-ethyl-N-(2-methyl-5′-morpholino-6′-((tetrahydro-2H-pyran-4-yl)oxy)-[3,3′-bipyridin]-5-yl)-3-(trifluoromethyl)benzamide]	1100 nM
Cc1ncc(NC(=O)c2ccnc(C(C)C)c2)cc1-c1cnc(OC2CCOCC2)c(N2CCOCC2)c1 [Example 313, 2-isopropyl-N-(2-methyl-5′-morpholino-6′-((tetrahydro-2H-pyran-4-yl)oxy)-[3,3′-bipyridin]-5-yl)isonicotinamide]	7 nM
Cc1ccc(NC(=O)c2ccnc(C(C)(C)C#N)c2)cc1-c1cc(N2CCOCC2)c(=O)n(C)n1 [Example 191, 2-(2-cyanopropan-2-yl)-N-(4-methyl-3-(1-methyl-5-morpholino-6-oxo-1,6-dihydropyridazin-3-yl)phenyl)isonicotinamide]	5.4 nM
Cc1ccc(NC(=O)c2cnccn2)cc1-c1ccnc(N2CCOCC2)c1 [Example 70, N-(4-methyl-3-(2-morpholinopyridin-4-yl)phenyl)pyrazine-2-carboxamide]	200 nM
COc1ncc(-c2cc(NC(=O)c3ccnc(C(F)(F)F)c3)cnc2C)cc1N1CCOCC1 [Example 324, N-(6′-methoxy-2-methyl-5′-morpholino-[3,3′-bipyridin]-5-yl)-2-(trifluoromethyl)isonicotinamide]	7.4 nM
Cc1ccc(NC(=O)c2cccc(C(F)(F)F)c2)cc1-c1cc(N2CCOCC2)nc(OCCO)n1 [Example 40, N-(3-(2-(2-hydroxyethoxy)-6-morpholinopyrimidin-4-yl)-4-methylphenyl)-3-(trifluoromethyl)benzamide]	0.8 nM
Cc1ccc(NC(=O)c2ccnc(C(C)(C)C#N)c2)cc1-c1cnc(OC(F)F)c(N2CCOCC2)c1 [Example 223, 2-(2-cyanopropan-2-yl)-N-(3-(6-(difluoromethoxy)-5-morpholinopyridin-3-yl)-4-methylphenyl)isonicotinamide]	2.2 nM
Cc1ncc(NC(=O)c2cccc(C3(C#N)CC3)c2Cl)cc1-c1cc(N2CCOCC2)c(=O)n(C)c1 [Example 403, 2-chloro-3-(1-cyanocyclopropyl)-N-(1′,2-dimethyl-5′-morpholino-6′-oxo-1′,6′-dihydro-[3,3′-bipyridin]-5-yl)benzamide]	62 nM

More lines, now with the values ahead:

IC50	SMILES
2.7 nM	Cc1ncc(NC(=O)c2ccnc(C(C)(C)F)c2)cc1-c1cnc(OC2CCOCC2)c(N2CCOCC2)c1 [Example 273, 2-(2-fluoropropan-2-yl)-N-(2-methyl-5′-morpholino-6′-((tetrahydro-2H-pyran-4-yl)oxy)-[3,3′-bipyridin]-5-yl)isonicotinamide]
9000 nM	Cc1ccc(NC(=O)c2ccnc(C(C)(C)C#N)c2)cc1-c1cc(N2CCOCC2)c(=O)n(CC2(C)COC2)c1 [Example 338, 2-(2-cyanopropan-2-yl)-N-(4-methyl-3-(1-((3-methyloxetan-3-yl)methyl)-5-morpholino-6-oxo-1,6-dihydropyridin-3-yl)phenyl)isonicotinamide]
0.8 nM	CCOc1ncc(-c2cc(NC(=O)c3ccnc(S(C)(=O)=O)c3)ccc2C)cc1N1CCOCC1 [Example 232, N-(3-(6-ethoxy-5-morpholinopyridin-3-yl)-4-methylphenyl)-2-(methylsulfonyl)isonicotinamide]
